Measured values reported in PMC6273820, “Antimicrobial Activity and Stability of Short and Long Based Arachnid Synthetic Peptides in the Presence of Commercial Antibiotics” (Molecules, 2016).
Where no end group is shown, it is not given here.

How the values were obtained:
[1] = tested on: Escherichia coli ATCC 25922; test: microbe, parasite or virus in culture; type: cell-based; details: broth microdilution (CLSI), Mueller-Hinton broth, 18 h at 37 °C, A625nm; peptides n = 8
Method: It was determined using the broth microdilution assay in accordance with the procedures from the Clinical and Laboratory Standards Institute. For broth microdilution assays, pathogenic bacteria, such as Escherichia coli ATCC 25922, Staphylococcus aureus ATCC 25923, Pseudomonas aeruginosa ATCC 27853 and Klebsiella pneumoniae ST258, were cultured in Mueller-Hinton broth (MHB) at 37 °C until an end point between of 0.08 and 0.13 units of absorbance at 625 nm and diluted 1:100 in MHB (ca. […]). Fifty microliters of this bacterial suspension was dispensed into each well of a 96-well microtiter Costar® culture plates (Sigma Aldrich) having 50 µL of MHB containing a proper concentration of pure AMPs, antibiotics or the mixture of either of the AMPs with either of the antibiotics used. Dilutions of peptides and antibiotics were made manually with two-fold dilutions. […]

[2] = tested on: Pseudomonas aeruginosa ATCC 27853; test: microbe, parasite or virus in culture; type: cell-based; details: broth microdilution (CLSI), Mueller-Hinton broth, 18 h at 37 °C, A625nm; peptides n = 8
Method: (§1) It was determined using the broth microdilution assay in accordance with the procedures from the Clinical and Laboratory Standards Institute. For broth microdilution assays, pathogenic bacteria, such as Escherichia coli ATCC 25922, Staphylococcus aureus ATCC 25923, Pseudomonas aeruginosa ATCC 27853 and Klebsiella pneumoniae ST258, were cultured in Mueller-Hinton broth (MHB) at 37 °C until an end point between of 0.08 and 0.13 units of absorbance at 625 nm and diluted 1:100 in MHB (ca. […]). Fifty microliters of this bacterial suspension was dispensed into each well of a 96-well microtiter Costar® culture plates (Sigma Aldrich) having 50 µL of MHB containing a proper concentration of pure AMPs, antibiotics or the mixture of either of the AMPs with either of the antibiotics used. Dilutions of peptides and antibiotics were made manually with two-fold dilutions.
(§2) E. coli, S. aureus, P. aeruginosa and K. pneumoniae were grown in the presence of each of the four AMPs, and in the presence of each of the eight commercial antibiotics, which were Levofloxacin, Trimethoprim, Sulfamethoxazole, Azithromycin, Amoxicillin, Ceftriaxone, Gentamicin and Vancomycin, and in combinations of AMPs and the antibiotics. That is, the antimicrobial capacity of each AMP (50, 25, 12.5 and 6.2 µg/ mL) in combination with each antibiotic agent (50, 25, 12.5, 3.2, 1.6 and 0 µg/ mL) was measured as described above. For evaluation of the effect of the mixtures, the fractional inhibitory concentration (FIC) was calculated for each antibiotic in each combination. The following formulas were used to calculate the FIC index: FIC of AMP = MIC of AMP in combination with Antibiotic/MIC of AMP alone; FIC of Antibiotic = MIC of Antibiotic in combination with AMP/MIC of Antibiotic alone, and FIC index = FIC of AMP + FIC of Antibiotic. Synergy was defined as an FIC index of <0.5. Additive was defined as an FIC index of >0.5 but of <4, and finally antagonism was defined as an FIC index of >4.

[3] = tested on: Staphylococcus aureus ATCC 25923; test: microbe, parasite or virus in culture; type: cell-based; details: broth microdilution (CLSI), Mueller-Hinton broth, 18 h at 37 °C, A625nm; peptides n = 8
Method: as §1, §2

[4] = tested on: Klebsiella pneumoniae ST258; test: microbe, parasite or virus in culture; type: cell-based
Method: as §1
as §2, with “That” for “E. coli, S. aureus, P. aeruginosa and K. pneumoniae were grown in the presence of each of the four AMPs, and in the presence of each of the eight commercial antibiotics, which were Levofloxacin, Trimethoprim, Sulfamethoxazole, Azithromycin, Amoxicillin, Ceftriaxone, Gentamicin and Vancomycin, and in combinations of AMPs and the antibiotics. That”

[5] = Stability in saline buffer (PBS); type: physicochemical; details: 20 μg peptide in PBS pH 7.4, 37 °C, 7 days; height of peptide peak in reverse phase HPLC
Method: The stability of the four synthetic peptides (20 μg) was measured in phosphate buffered saline (PBS) that consisted of NaCl (137 mM), KCl (2.7 mM), Na2HPO4 (10 mM) and KH2PO4 (2 mM) at 37 °C for 7 days (pH 7.4). The stability of peptides in PBS was monitored measuring the height of the peptide peak when separated using reverse phase HPLC under the separation conditions mentioned above.

[6] = Stability in human blood plasma; type: in vitro ADME; details: 50 μg/mL
Method: (§3) The four synthetic peptides were subjected to incubation in human blood plasma or in the supernatant of S. aureus and P. aeruginosa growth. The AMPs were diluted in human blood plasma or in the supernatant of bacterial growth (50 μg/mL) and incubated at 37 °C for 12 h. After peptide extraction, the AMPs were separated by reverse phase HPLC using a C18 column (Vydac 218 TP54, Grace Co.) and a linear gradient of acetonitrile in 0.1% aqueous TFA from 0 to 60% in 60 min at a flow rate of 1 mL/min. Effluent absorbance was monitored at 230 nm. Peptide fractions were dried under vacuum, resuspended and analyzed by ESI-MS to confirm their molecular masses.

[7] = Stability in supernatant of S. aureus growth; type: in vitro ADME, Staphylococcus aureus; details: 50 μg/mL, 12 h at 37 °C, extraction, reverse phase HPLC at 230 nm
Method: as §3

[8] = Stability in supernatant of P. aeruginosa growth; type: in vitro ADME, Pseudomonas aeruginosa; details: 50 μg/mL, 12 h at 37 °C, extraction, reverse phase HPLC at 230 nm
Method: as §3

[9] = cited from earlier work
Description: Concerning AMPs, several physicochemical characteristics have been associated with the biological activity of them. Those that are relevant include hydrophobicity, the helical hydrophobic moment, as well as the size and the net charge of the peptide. However, no particular value relating to any of these characteristics was solely sufficient to correlate with the antimicrobial activity of the AMPs tested. In this case, however, the larger peptides FA1 and Pin2[G] were the AMPs that manifested optimum biological performance. Nevertheless, a fine balance in terms of physicochemical pr ...

Sequence: GILKTIKSIASKVANTVQKLKRKAKNAV [FA1]
- Minimal Inhibitory Concentration, E. coli [1]: 12.5 µg/mL
- Minimal Inhibitory Concentration, P. aureginosa [2]: 25 µg/mL
- Minimal Inhibitory Concentration, S. aureus [3]: >50 µg/mL
- Minimal Inhibitory Concentration, K. pneumoniae ([4]; broth microdilution (CLSI), Mueller-Hinton broth, 18 h at 37 °C, A625nm, peptides n = 8): >50 µg/mL
- Peptide (MIC) ([4]; peptide alone against K. pneumoniae, based on Figure 2): >50 µg/mL
- Stability in saline buffer [5]: less stable
- Peptide found after incubation in human blood plasma ([6]; 12 h at 37 °C, extraction, reverse phase HPLC at 230 nm, ESI-MS): not found
- Recovery after interaction with human plasma, first few minutes of dilution ([6]; extracted after the first few minutes of dilution, reverse phase HPLC): none
- Stability in supernatants of S. aureus [7]: only a small amount
- Stability in supernatants of P. aeruginosa [8]: not found
- hemolytic activity [9]: 665 µM
